Measured values as given in patent US6956055B2, “Substituted γ-lactone compounds as NMDA-antagonists” (Grunenthal GmbH, priority 2001, dated 2005).

Biological target: T1, glycine-binding site of the NMDA receptor channel (Rattus norvegicus, UniProt P35439)
T1 construct: from tissue; host or cells: rat brain cortex and hippocampus membrane homogenate (male Wistar rats, Charles River)
Experiment: Receptor binding test, displacement of (3H)-MDL 105.519 on rat brain membrane homogenates
Settings: rat cortex and hippocampus membrane homogenate; for inhibition at 10 µM: (3H)-MDL 105.519; for Ki: 1 nmol/l (3H)-MDL 105.519, IC50 converted using Cheng-Prusoff equation
Method: The investigations for determining the affinity of the γ-lactone compounds of the general formula I according to the invention for the glycine-binding site of the NMDA receptor channel were performed on brain membrane homogenates (homogenate of cortex and hippocampus area from the brain of male rats, Wistar strain, Charles River, WIGA GmbH, Sulzbach, Germany), as described in B. M. Baron et al., Journal of Pharmacology and Experimental Therapeutics, vol. 279, pages 62-68, 1996. The corresponding literature description is hereby introduced as a reference and is deemed to be part of the disclosure.
To this end, the cortex and hippocampus were dissected out of freshly harvested rat brains and homogenised with ice cooling in 5 mmol/l of TRIS-acetate buffer, 0.32 mol/l of sucrose, pH 7.4 (10 ml/g fresh weight) using a Potter homogeniser (Braun, Melsungen, Germany, 10 piston strokes at 500 revolutions per minute (rpm)) and then centrifuged for 10 minutes at 1,000 g and 4° C. The first supernatant was collected and the sediment again homogenised with ice cooling with 5 mmol/l of TRIS-acetate buffer, 0,32 mol/l of sucrose, pH 7.4 (5 ml/g of original fresh weight of rat cerebral cortex and hippocampus) with the Potter homogeniser (10 piston strokes at 500 rpm) and centrifuged for 10 minutes at 1,000 g and 4° C. The resultant supernatant was combined with the supernatant from the first centrifugation and centrifuged at 17,000 g for 20 minutes at 4° C. The supernatant after this centrifugation was discarded and the membrane sediment was resuspended with 5 mmol/l of TRIS-acetate buffer, pH 8.0 (20 ml/g of original fresh weight) and homogenised with 10 piston strokes at 500 rpm.
The membrane homogenate was then incubated for 1 hour at 4° C. and centrifuged for 30 minutes at 50,000 g and 4° C. The supernatant was discarded and the centrifuge tubes containing the membrane sediment were sealed with Parafilm and frozen for 24 hours at −20° C. On the following day, the membrane sediment was thawed and resuspended with ice-cold 5 mmol/l TRIS-acetate buffer, 0,1% saponin (wt./vol.), pH 7.0 (10 ml/g of original fresh weight) and homogenised with 10 piston strokes at 500 rpm and then centrifuged for 20 minutes at 50,000 g and 4° C. The resultant supernatant was discarded and the sediment resuspended in a small volume with 5 mmol/l of TRIS-acetate buffer, pH 7.0 (approx. 2 ml/g of original fresh weight) and again homogenised with 10 piston strokes at 500 rpm. After determination of the protein content, the membrane homogenate was adjusted with 5 mmol/l TRIS-acetate buffer, pH 7.0, to a protein concentration of 10 mg of protein/ml and frozen in aliquots until used for testing.
The receptor binding test was performed by thawing aliquots, diluting them 1:10 with 5 mmol/l TRIS-acetate buffer, pH 7.0, homogenising them with ice-cooling with 10 piston strokes at 500 rpm with the Potter homogeniser and centrifuging them for 60 minutes at 55,000 g at 4° C. The supernatant was decanted and the membrane sediment adjusted with ice-cold 50 mmol/l TRIS-acetate buffer, pH 7.0, to a protein concentration of 1 mg/ml and again homogenised with 10 piston strokes at 500 rpm and kept in suspension in an ice bath with stirring on a magnetic stirrer. This membrane homogenate was used in the receptor binding test in a quantity of 100 μl per 1 ml batch (0.1 mg of protein/ml in the final batch).
In the binding test, 50 mmol/l TRIS-acetate buffer pH 7.0 was used as the buffer and 1 nmol/l of (^3H)-MDL 105.519 was used as the radioactive ligand, as described in the above-stated literature reference by B. M. Baron et al. The level of non-specific binding was determined in the presence of 1 mmol/l of glycine.
In further batches, the compounds of the general formula I according to the invention were added in concentration series and the displacement of the radioactive ligand from its specific binding at the glycine-binding site of the NMDA receptor channel was determined. […]

Compound | inhibition at 10 µM | Ki
CC1(c2ccc(F)cc2)CC(Nc2cc(Cl)cc(Cl)c2)C(=O)O1 (stereo not shown) [Example 13, 3-(3,5-Dichloro-phenylamino)-5-(4-fluoro-phenyl)-5-methyl-dihydro-furan-2-one] | 70% | 800 nM
CCCCC1(c2ccccc2)CC(Nc2cc(Cl)cc(Cl)c2)C(=O)O1 (stereo not shown) [Example 108, 5-n-Butyl-3-(3,5-dichlorophenylamino)-5-phenyl-dihydrofuran-2-one] | 62% | 
CC1(c2ccccc2)CC(Nc2cc(Cl)cc(Cl)c2)C(=O)O1 (stereo not shown) [Example 12, 3-(3,5-Dichloro-phenylamino)-5-methyl-5-phenyl-dihydro-furan-2-one] | 80% | 800 nM
CC1(c2ccc(Cl)cc2)CC(Nc2cc(Cl)cc(Cl)c2)C(=O)O1 (stereo not shown) [Example 25, 5-(4-Chloro-phenyl)-3-(3,5-dichloro-phenylamino)-5-methyl-dihydro-furan-2-one] | 71% | 1300 nM
